“And” between values parts separate entries of the source, which are not always exact repeats. Equal entries are not always repeated. Toxic doses and inconclusive results are not listed. Cut-off read from the data, not from the text of the source: active = T/C of 150% or more; inactive = T/C below 125%.
Tested on: L1210 leukemia ip in BDF1 mice, survival T/C
Experiment: NCI In Vivo Anticancer Drug Screen. Data for tumor model L1210 Leukemia (intraperitoneal) in B6D2F1 (BDF1) mice
Conditions: endpoint: mean survival time, higher = longer survival
In short: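 In this screen, tumor-bearing mice given compound are compared to those given vehicle, and their survival values are reported as a treated-to-control quotient.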

[1] = dose: 100.0 mg/kg/injection, schedule: Q04DX003 (ip), vehicle: Klucel (hydroxypropylcellulose) (HPC)
[2] = dose: 200.0 mg/kg/injection, schedule: Q04DX003 (ip), vehicle: Klucel (hydroxypropylcellulose) (HPC)
[3] = dose: 400.0 mg/kg/injection, schedule: Q04DX003 (ip), vehicle: Klucel (hydroxypropylcellulose) (HPC)
[4] = dose: 25.0 mg/kg/injection, schedule: Q01DX009 (ip), vehicle: saline
[5] = dose: 75.0 mg/kg/injection, schedule: Q01DX009 (ip), vehicle: saline with Tween-80
[6] = dose: 150.0 mg/kg/injection, schedule: Q01DX009 (ip), vehicle: saline with Tween-80
[7] = dose: 25.0 mg/kg/injection, schedule: Q04DX003 (ip), vehicle: saline with Tween-80
[8] = dose: 50.0 mg/kg/injection, schedule: Q04DX003 (ip), vehicle: saline with Tween-80
[9] = dose: 100.0 mg/kg/injection, schedule: Q01DX001 (ip), vehicle: saline with Tween-80
[10] = dose: 100.0 mg/kg/injection, schedule: Q04DX003 (ip), vehicle: saline with Tween-80
[11] = dose: 100.0 mg/kg/injection, schedule: Q01DX001 (ip), vehicle: saline
[12] = dose: 200.0 mg/kg/injection, schedule: Q01DX001 (ip), vehicle: saline
[13] = dose: 400.0 mg/kg/injection, schedule: Q01DX001 (ip), vehicle: saline

Measured: T/C

N=C(OC1CCCCC1)N1CCOCC1
inactive: dose: 22.0 mg/kg/injection, schedule: Q01DX Z (ip), vehicle: saline 100 % of control | dose: 33.0 mg/kg/injection, schedule: Q01DX Z (ip), vehicle: saline 102 % of control | dose: 50.0 mg/kg/injection, schedule: Q01DX Z (ip), vehicle: saline 106 % of control

CC(C)N=Cc1ccccc1O.CC(C)N=Cc1ccccc1O.[Zn]
inactive: dose: 100.0 mg/kg/injection, schedule: Q01DX009 (ip), vehicle: saline sonified 91 % of control | [1] 88 % of control | dose: 200.0 mg/kg/injection, schedule: Q01DX009 (ip), vehicle: saline sonified 92 % of control | [2] 89 % of control | dose: 400.0 mg/kg/injection, schedule: Q01DX009 (ip), vehicle: saline sonified 96 % of control | [3] 93 % of control

S=c1[nH]c2ccccc2c2ccccc12
inactive: dose: 50.0 mg/kg/injection, schedule: Q01DX009 (ip), vehicle: Klucel (hydroxypropylcellulose) (HPC) 96 % of control | dose: 100.0 mg/kg/injection, schedule: Q01DX009 (ip), vehicle: Klucel (hydroxypropylcellulose) (HPC) 105 % of control | [1] 97 % of control | dose: 200.0 mg/kg/injection, schedule: Q01DX009 (ip), vehicle: Klucel (hydroxypropylcellulose) (HPC) 97 % of control | [2] 90 % of control | [3] 95 % of control

CCOP(=O)(OCC)N1C(=O)CCC1=O
inactive: dose: 6.25 mg/kg/injection, schedule: Q04DX003 (ip), vehicle: saline 105 % of control | dose: 12.5 mg/kg/injection, schedule: Q04DX003 (ip), vehicle: saline 100 % of control | dose: 13.75 mg/kg/injection, schedule: Q01DX009 (ip), vehicle: saline 88 % of control | dose: 25.0 mg/kg/injection, schedule: Q04DX003 (ip), vehicle: saline 103 % of control | dose: 27.5 mg/kg/injection, schedule: Q01DX009 (ip), vehicle: saline 94 % of control | dose: 35.0 mg/kg/injection, schedule: Q04DX003 (ip), vehicle: saline 102 % of control | dose: 55.0 mg/kg/injection, schedule: Q04DX003 (ip), vehicle: saline 101 % of control

Cc1ccccc1SCC#CCSc1ccccc1C
inactive: dose: 100.0 mg/kg/injection, schedule: Q01DX001 (ip), vehicle: Klucel (hydroxypropylcellulose) (HPC) 93 % of control | dose: 200.0 mg/kg/injection, schedule: Q01DX001 (ip), vehicle: Klucel (hydroxypropylcellulose) (HPC) 95 % of control | dose: 400.0 mg/kg/injection, schedule: Q01DX001 (ip), vehicle: Klucel (hydroxypropylcellulose) (HPC) 106 % of control

Nc1cccc(C(F)(F)F)c1
inactive: [4] 103 % of control | dose: 50.0 mg/kg/injection, schedule: Q01DX009 (ip), vehicle: saline 103 % of control | dose: 100.0 mg/kg/injection, schedule: Q01DX009 (ip), vehicle: saline 94 % of control and 88 % of control

O=C(NC1CC2c3ccccc3C1c1ccccc12)NC1CC2c3ccccc3C1c1ccccc12 (centres undefined)
inactive: [1] 94 % of control | [2] 89 % of control | [3] 98 % of control

OCCOc1ccc(Cl)cc1Cl
inactive: dose: 50.0 mg/kg/injection, schedule: Q01DX001 (ip), vehicle: other 101 % of control | [5] 101 % of control | dose: 100.0 mg/kg/injection, schedule: Q01DX001 (ip), vehicle: other 103 % of control | [6] 98 % of control | dose: 200.0 mg/kg/injection, schedule: Q01DX001 (ip), vehicle: other 103 % of control | dose: 300.0 mg/kg/injection, schedule: Q01DX009 (ip), vehicle: saline with Tween-80 109 % of control

Cc1cccc(C(=O)NN)n1
inactive: dose: 12.5 mg/kg/injection, schedule: Q01DX009 (ip), vehicle: saline 94 % of control | [4] 105 % of control

CCCCCCN1C(=O)c2ccccc2S1(=O)=O
inactive: dose: 222.0 mg/kg/injection, schedule: Q01DX Z (ip), vehicle: methylcellulose (MC) 101 % of control | dose: 333.0 mg/kg/injection, schedule: Q01DX Z (ip), vehicle: methylcellulose (MC) 113 % of control | dose: 500.0 mg/kg/injection, schedule: Q01DX Z (ip), vehicle: methylcellulose (MC) 100 % of control

[N-]=[N+]=NCc1nnc2ncnc(N)c2n1
inactive: dose: 25.0 mg/kg/injection, schedule: Q01DX009 (ip), vehicle: saline with Tween-80 88 % of control | [7] 94 % of control | [8] 105 % of control | [9] 95 % of control | [10] 102 % of control

CCOC(=O)/C(O)=C\c1cc(Br)c(OC)cc1[N+](=O)[O-]
inactive: [11] 102 % of control | dose: 100.0 mg/kg/injection, schedule: Q04DX003 (ip), vehicle: saline 98 % of control | [12] 107 % of control | dose: 200.0 mg/kg/injection, schedule: Q04DX003 (ip), vehicle: saline 98 % of control | [13] 95 % of control | dose: 400.0 mg/kg/injection, schedule: Q04DX003 (ip), vehicle: saline 95 % of control

CN1C(=O)CC(C(=O)CBr)(c2ccccc2)C1=O (centres undefined)
inactive: [7] 109 % of control | [8] 101 % of control

O=C(O)CCSc1ccccc1
inactive: dose: 40.0 mg/kg/injection, schedule: Q01DX009 (ip), vehicle: saline with Tween-80 96 % of control | [5] 88 % of control | dose: 75.0 mg/kg/injection, schedule: Q04DX003 (ip), vehicle: saline 96 % of control | [6] 101 % of control

COc1cc2c(cc1OCc1ccccc1)C(c1cc(OC)c(OC)c(OC)c1)=C1C(=O)OCC1C2 (centres undefined)
inactive: [11] 98 % of control | [12] 97 % of control | [13] 97 % of control

C1CCC(N2OC23CCCCC3)CC1 (centres undefined)
inactive: dose: 100.0 mg/kg/injection, schedule: Q01DX001 (ip), vehicle: carboxymethylcellulose (CMC) 92 % of control | dose: 200.0 mg/kg/injection, schedule: Q01DX001 (ip), vehicle: carboxymethylcellulose (CMC) 90 % of control | dose: 400.0 mg/kg/injection, schedule: Q01DX001 (ip), vehicle: carboxymethylcellulose (CMC) 92 % of control

O=c1cc[nH]c(=O)o1
inactive: dose: 63.0 mg/kg/injection, schedule: Q01DX009 (ip), vehicle: water 89 % of control

OC(c1ccccc1)C(c1ccccc1)N1CCCC1 (centres undefined)
inactive: dose: 75.0 mg/kg/injection, schedule: Q01DX001 (ip), vehicle: saline 94 % of control | dose: 150.0 mg/kg/injection, schedule: Q01DX001 (ip), vehicle: saline 97 % of control | dose: 300.0 mg/kg/injection, schedule: Q01DX001 (ip), vehicle: saline 92 % of control

NC(CC(=O)O)C(=O)O.[Cu+2] (centres undefined)
inactive: dose: 5.0 mg/kg/injection, schedule: Q01DX009 (ip), vehicle: Klucel (hydroxypropylcellulose) (HPC) 106 % of control | dose: 10.0 mg/kg/injection, schedule: Q01DX009 (ip), vehicle: Klucel (hydroxypropylcellulose) (HPC) 104 % of control | dose: 20.0 mg/kg/injection, schedule: Q01DX009 (ip), vehicle: Klucel (hydroxypropylcellulose) (HPC) 108 % of control | dose: 20.0 mg/kg/injection, schedule: Q04DX003 (ip), vehicle: Klucel (hydroxypropylcellulose) (HPC) 100 % of control

CC(C)c1ccc(C(=O)CCCCl)cc1
inactive: [10] 97 % of control | dose: 200.0 mg/kg/injection, schedule: Q04DX003 (ip), vehicle: saline with Tween-80 102 % of control | dose: 400.0 mg/kg/injection, schedule: Q04DX003 (ip), vehicle: saline with Tween-80 92 % of control

CCOC(=S)c1cccc(S(=O)(=O)Nc2ccc(OCC)cc2)c1
inactive: [9] 105 % of control | dose: 200.0 mg/kg/injection, schedule: Q01DX001 (ip), vehicle: saline with Tween-80 105 % of control | dose: 400.0 mg/kg/injection, schedule: Q01DX001 (ip), vehicle: saline with Tween-80 108 % of control
